The values that follow come from patent US7947742B2 (Civitas Therapeutics, Inc., priority 2002, dated 2011).

Like-named read-outs stand apart in the source and are kept apart here.

In general, Cmax refers to the peak of the concentration-time curve. What is called Tmax is the time at which the peak concentration occurs.

The nature of data set [1]: Stability of epinephrine in dry powders with antioxidants, loosely capped vials (Example 10), HPLC. It counts as physicochemical. Particulars: 40° C. and 15% RH, compared to control containing no antioxidants. From the text: Solution preparation. […] The leucine and the antioxidant were present at a combined 82% of the total solids concentration. The two phases were static-mixed immediately prior to being spray dried.
Solutions containing BHT, Vitamin E and Vitamin C were made using a slightly different procedure as follows. […] Additional ethanol pure solvent was static-mixed with the 50/50 ethanol/water solution to form a 70/30 (v/v) ethanol/water solution. The Vitamin E formulation at the 0.3% and 0.9% loadings were prepared as follows. The Vitamin E at these levels was dissolved in the complete organic phase and static-mixed with the aqueous phase which prevented the Vitamin E from precipitating out of solution. Vitamin C was only dissolved in the aqueous phase at 0.9% and the three other powders containing vitamin C at 0.6, 0.9 and 2.0% was prepared with Vitamin C dissolved in the organic phase. Spray drying of all of the powders was performed as described for Formulation IX using the procedure of Example 7.
Stability conditions and analysis. 50 mg of powder was placed into a 7 mL scintillation vial. The vial was loosely capped and placed inside an oven at 40° C. and approximately 15% relative humidity (RH). Samples were analyzed immediately (T0) and after 1, 2, 4 and 8 weeks of such storage. Controls containing no antioxidants (i.e., Formulation IX) were also placed at 45° C. and 50° C. loosely capped.

A further data set relates to healthy male subjects. Description: Phase I human pharmacodynamics, potassium change from baseline (Example 15). Format: in vivo, humans. Particulars: dry powder 800 micrograms, EpiPen 300 micrograms, standard IM 300 micrograms. On the procedure:
Safety and PK information was obtained for at least 2 hours following dosing.

A short description of data set [2]: Rat pharmacokinetics, plasma epinephrine after intratracheal insufflation or IM injection (Example 12). It counts as in vivo, Sprague Dawley rats. Particulars: rats, injected intramuscularly with epinephrine in solution, up to 20 minutes. The procedure: (§1) Blood samples were taken from the rats via jugular catheters at time points 0, 2.5, 5, 10, and 20 minutes following dosing. Measurements of heart rate were also made at the same time points.
Dose Administration. The powder was delivered to the lungs of rats by an insufflation technique. The insufflator device was from PennCentury (Philadelphia, Pa.). The delivery tube of the insufflator was inserted intratracheally through the mouth until the tip of the tube was about a centimeter from the carina (first bifurcation). […] The volume of […] used to deliver the powder from the sample chamber was 3 mL, which was achieved from a charged syringe. The syringe was recharged and discharged two more times for a total of three discharges per powder dose in order to decrease or eliminate powder residues in the sample chamber.
Study Design. The jugular vein of animals used in pharmacokinetics studies was catheterized with PE90 on the day before the dosing and sampling was performed. A total of six animals were used in this study. For anesthesia (catheter placement and powder dosing), a mixture of ketamine (25 mg), xylazine (3 mg), and acepromazine (0.2 mg) was injected intraperitoneally (IP) into each animal. […] Blood was taken and heart rate was measured using a pulse oximeter attached to the right hind limb of the rats at time 0, 2.5, 5.0, 10.0, and 20.0 minutes. […]

The nature of data set [3]: Phase I human pharmacokinetics of single doses (Example 15). It counts as in vivo, humans. The procedure: The following example describes a clinical study evaluating inhaled dry powder porous particles containing epinephrine (Formulation VII, as described in Table A). The study was a Phase I, randomized, double blind, placebo-controlled, dose escalation study of the safety, tolerability and pharmacokinetics (PK) of single doses of dry powder epinephrine in healthy male subjects. […] Safety and PK information was obtained for at least 2 hours following dosing.

A further data set has as its system Male Sprague Dawley rats. In words: Rat heart rate by pulse oximeter after dosing (Example 12). It counts as in vivo. The procedure: as §1
Study Design. The jugular vein of animals used in pharmacokinetics studies was catheterized with PE90 on the day before the dosing and sampling was performed. A total of six animals were used in this study. For anesthesia (catheter placement and powder dosing), a mixture of ketamine (25 mg), xylazine (3 mg), and acepromazine (0.2 mg) was injected intraperitoneally (IP) into each animal. The rats were placed on a heating pad after catheter placement to recover. After powder dosing, the rats were placed back in their respective cages. Identification numbers assigned to the rats were written on their tails as well as on the cage cards. Blood was taken and heart rate was measured using a pulse oximeter attached to the right hind limb of the rats at time 0, 2.5, 5.0, 10.0, and 20.0 minutes. The blood samples were collected by syringe from the jugular vein catheter. The blood was carefully ejected into EDTA coated tubes, mixed and then centrifuged for 5 minutes at 14,000 g to separate the plasma from the cells. Plasma was placed into clean microfuge tubes and stored refrigerated until received at the laboratory. […]

For the molecule `O=C1O[C@H]([C@@H](O)CO)C(O)=C1O` [Ascorbic acid, ascorbic acid], in data set [1], the “protection against degradation of epinephrine (in words)” value (from here on “protection against degradation”) is reported as “not effective antioxidants”.
Turning to `CNCC(O)c1ccc(O)c(O)c1` (centres unmarked) [Epinephrine, 4-[1-hydroxy-2-(methylamino)ethyl]-1,2-benzenediol], the “time of maximal potassium mean change from baseline” value in the data set with healthy male subjects was “continued to decrease through 60 minutes post-dose”. Besides, the “Plasma epinephrine levels (in words)” value in data set [2] was “very low and not significantly different from room air controls”. For the same molecule, the “CMAX % CV” value in data set [3] (healthy male subjects, standard IM injection, 300 micrograms, n = 7) is reported as 66%. Moreover, the Cmax in data set [3] (male, human, plasma, im, 300 micrograms, healthy male subjects, standard IM injection, 300 micrograms, n = 7, read-out: CMAX Mean (SD)) is 0.263 ng/mL; in data set [3] (male, human, plasma, im, 300 micrograms, standard IM injection 300 micrograms, read-out: CMAX values of 2 subjects with higher values), 0.405 ng/mL; in data set [3] (male, human, plasma, im, 300 micrograms, standard IM injection 300 micrograms, read-out: CMAX values of the others in the group) it was not above 0.22 ng/mL. The Tmax in data set [3] (male, human, plasma, im, 300 micrograms, healthy male subjects, standard IM injection, 300 micrograms, n = 7, read-out: TMAX (range)) is 1 to 60 min. The “CMAX values of 2 subjects with higher values” in data set [3] (standard IM injection 300 micrograms) came out at 595 pg/mL. The “heart rate increase in one animal” value in the data set on Male Sprague Dawley rats (one rat intramuscularly injected, observed out to 40 minutes, 25 minutes following dosing) is 340 beats/minute. The “heart rate compared to baseline (in words)” value with Male Sprague Dawley rats (rats, IM-injected, up to 20 minutes) was “did not exhibit a significant increase in heart rate”.
On to `O=S([O-])S(=O)(=O)[O-].[Na+].[Na+]` [Sodium metabisulfite, sodium metabisulfite], for which the “protection against degradation” value in data set [1] was “good protection against degradation of epinephrine”.
On to `O=C(O)CN(CCN(CC(=O)O)CC(=O)O)CC(=O)O` [EDTA, ethylenediamine tetra-acetic acid], for which the “protection against degradation” value in data set [1] is on record as “good protection against degradation of epinephrine”.
Regarding `Cc1cc(C(C)(C)C)c(O)c(C(C)(C)C)c1` [BHT, butylated hydroxytoluene], the “protection against degradation” value in data set [1] is on record as “not effective antioxidants”.
